Test results: patent publication US20260183302A1, “PDK1 REGULATORY COMPOUND AND COMPOSITION CONTAINING THE SAME” (PROVIBIO CO., LTD., priority 2024, published 2026)
Entries after “also recorded” stand apart in the source; their conditions may differ.

What was measured:
[1] = system: PDK1 phosphorylation in SU-DHL-8 cells; test: PDK1 phosphorylation inhibition by flow cytometry (pPDK1-PE) in SU-DHL-8 cells; format: cell-based, human; conditions: SU-DHL-8, 24 hours, vs control group
Protocol: After stabilizing the cells, the compound of the present invention was added, and the cells were cultured for 24 hours.
After drug treatment, the cells were harvested, and the Fc receptor blocking process was performed. The cells were then fixed and permeabilized using the Intracellular Staining Kit (Cat. No. BD554715) from BD Biosciences. Subsequently, the intracellular pPDK1 was stained using the pPDK1-PE fluorescently labeled antibody (BD Biosciences).
Referring to the figure, the vertical axis represents the phosphorylation level of PDK1 (phospho-PDK1 expression level), and the horizontal axis denotes the concentration-dependent treatment conditions of each compound.

psoriasis-induced mice = test: In vivo psoriasis model (Aldara cream, Imiquimod); design: species or system BALB/c mice
Protocol: To verify the therapeutic effect of the compound according to the present invention on psoriasis, a psoriasis animal model was established as follows, and the compound according to the present invention was administered to evaluate the alleviation of skin lesions and changes in immune cell patterns.
For the establishment of the psoriasis animal model, BALB/c mice (7 weeks old, female, 20 g) were purchased from HanabioTech Co., Ltd. and acclimatized to the rearing environment for one week.
Subsequently, the hair on the mouse back was shaved using a hair removal device for the first time, and then completely shaved using a depilatory cream (Nicrin Cream (80% thioglycolic acid, Il Dong Pharmaceutical)) for the second time. The mice were then kept for 24 hours to confirm the absence of skin damage.
To verify the psoriasis prevention and therapeutic effects of the compounds according to the present invention, the following experimental groups were established:
[Normal control group (Normal, Not Treatment), psoriasis-induced control group (Psoriasis, Not Treatment), psoriasis-induced vehicle control group (Psoriasis, Vehicle), experimental group (GO85, GO86, GO88, GO89, PBK-2024-010, PBK-2024-026, PBK-2025-002, PBK-2025-004, PBK-2025-016, PBK-2025-017, PBK-2025-023)]. […]
Body weights of mice in each group were measured on days 1, 4, and 8 after the start of injection and psoriasis induction. […]
To evaluate the therapeutic effect in a psoriasis-induced mouse model, the PASI (Psoriasis Area and Severity Index) score was measured.
The PASI score is based on three criteria: erythema, scaling, and skin thickness, each scored from 0 (none) to 4 (severe). […]
Observations were conducted daily at the same time, and the same observer visually assessed each criterion and recorded the scores, with the results presented in FIG. 13. […]
All samples were measured in duplicate, and the absorbance was measured at 450 nm using a microplate reader.

[2] = system: MRL/lpr mice with hair loss in the facial region; test: Hair loss treatment and hair follicle Ki-67 IHC in MRL/lpr mice; format: in vivo; conditions: 41-week-old female MRL/lpr; GO15F (30 mg/kg), GO48 (1 mg/kg), GO88 (0.5 mg/kg) intraperitoneal once daily
Protocol: Additionally, in 41-week-old female MRL/Ipr mice, the compounds GO15F (30 mg/kg), GO48 (1 mg/kg), and GO88 (0.5 mg/kg) were administered intraperitoneally once daily.
To confirm the proliferative activity of hair follicle cells in the skin tissue of these mice, the mice were sacrificed 14 days after administration of the compounds of the present invention, and Ki-67 immunohistochemistry (IHC) was performed.
For this purpose, the excised skin tissue was fixed in formalin, embedded in paraffin blocks, and stained with a Ki-67-specific antibody on tissue sections prepared as slides.

[3] = system: pulmonary fibrosis-induced mice; test: Bleomycin-induced pulmonary fibrosis animal model; format: in vivo, Balb/c mice; conditions: bleomycin mice lung, vs BLM-treated group
Text: To evaluate the therapeutic efficacy of the compound according to the present invention against pulmonary fibrosis, an animal model of pulmonary fibrosis induced by bleomycin intratracheal administration was established.
For this purpose, 8-week-old male Balb/c mice were subjected to general anesthesia using an inhalation anesthetic (2-3% isoflurane in oxygen), followed by disinfection of the neck region, skin incision, and exposure of the trachea.
Bleomycin (Sigma-Aldrich, USA) was directly administered into the trachea at a concentration of 5 mg/kg in a solution of 100 μL.
Two days prior to Bleomycin administration, the compound of the present invention or the comparative drug was administered intraperitoneally at the specified concentration and dose, and the administration was continued once daily for a total of 14 days.
The experimental groups included Normal, Bleomycin alone (BLM), and BLM plus the compound of the present invention (BLM+GO88, 0.2 mg/kg).
Ten days later, the mice were euthanized humanely using carbon dioxide gas, the trachea was incised, and PBS was injected into the trachea to remove blood from the lungs.
The lung tissue washed with PBS was excised, fixed in 4% paraformaldehyde solution for 24 hours, and then paraffin blocks and tissue sections were prepared. The prepared sections were subjected to pathological analysis using H&E, Masson's trichrome, and Sirius red staining.
Additionally, immunohistochemical (IHC) staining was performed for α-SMA (α-smooth muscle actin), an indicator of lung fibroblast activation.

Compound | phospho-PDK1 expression level ([1]; listed as GO86) | efficacy in improving dermatological symptoms (psoriasis-induced mice) | phospho-PDK1 expression level ([1]; listed as GO88) | hair growth on the facial region [2] | collagen deposition (Masson's trichrome and Sirius red staining) [3] | expression of α-SMA (IHC) [3] | phospho-PDK1 expression level [1]
12-[4-(2,2-dimethylmorpholin-4-yl)]dodecyl-N-(6-aminopurine-2-yl) carboxamide [Compound 11] | stronger PDK1 inhibition; also recorded: high inhibitory effects even at low concentrations | excellent efficacy in improving dermatological symptoms | – | – | – | – | –
Nc1ncccc1C(=O)NCCCCCCCCCCCCN1CCNCC1 [Compound 14, 2-Amino-N-(12-(piperazin-1-yl)dodecyl)nicotinamide] | – | excellent efficacy in improving dermatological symptoms | stronger PDK1 inhibition; also recorded: high inhibitory effects even at low concentrations | hair growth was confirmed | significantly reduced | significantly suppressed | –
Nc1ncccc1C(=O)NCCCCCCCCCCCCF [Compound 57, 2-Amino-N-(12-fluoro-dodecyl)-nicotinamide] | – | – | – | hair growth was confirmed | significantly reduced | significantly suppressed | inhibitory effect on PDK1 phosphorylation
